Experiments:
[1] = test system: second extracellular loop of the 5-HT4 receptor (peptide C15Q); experiment: Inhibition ELISA (IE): anti-peptide antibody against 5-HT4 receptor on the coated synthetic peptide C15Q; format: binding; details: FIG. 3
Protocol: • Coating • Corresponding peptide is dissolved extemporaneously in appropriate buffer. Peptide at calibrated concentration is coated on a highly absorbing microtitre plate. • Blocking of non-specific binding • Wash • The plate is washed with washing buffer (appendix 1). • Molecules to be screened on the peptide • Each molecule is dissolved and distributed on the plate.
Each molecule which is able to decrease the absorbance at 405 nm at around 20% from its control value is selected for the DMAE.
Five μg/ml of corresponding peptide (C15Q) was coated on a microtitre plate (Falcon, 96 wells). After blocking nonspecific binding sites with blocking buffer, polyclonal anti-C15Q antibodies at decreasing serial dilutions were allowed to react with the peptide.
The same protocol as mentioned above in “Example 1” was performed: […]

[2] = molecular target: second extracellular loop of the muscarinic M2 receptor (homologue peptide) (Homo sapiens, UniProt P08172); experiment: Indirect Inhibition ELISA (IIE): antibody against M2 receptor, homologue peptide and ligand in liquid phase; format: binding; details: FIG. 5
Chain of second extracellular loop of the muscarinic M2 receptor (homologue peptide) (P08172 163-182 limits assumed): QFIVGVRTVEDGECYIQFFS
Protocol: The selected molecule should beside binding the parent peptide in solid phase also be able to bind it in liquid phase. The latter would mime the in vivo conformation of the parent peptide. • Coating • Corresponding peptide is dissolved extemporaneously in appropriate buffer. Peptide at calibrated concentration is coated on a highly absorbing microtitre plate. • Blocking of on-specific binding • Wash • The plate is washed with washing buffer (appendix 1). • Selected molecules to be tested on IIE • Each molecule dissolved at known concentration is distributed on the plate. Immediately different cascade concentration of the parent peptide is added to the well. This is thereafter followed by the first antibody at AD50 dilution and incubated for an appropriate time and at an optimal temperature. • Wash • The plate is washed with washing buffer (appendix 1). • Secondary antibodies • Peroxidase conjugated goat anti-rabbit antibodies diluted at appropriate dilution (appendix 2) is allowed to react with the bound polyclonal anti-GPCR antibodies for an appropriate time and at an optimal temperature. • Wash
The same protocol as mentioned above in “Example 1 ” was performed: […]

Row | inhibition of the interaction of the anti-peptide antibody raised against the 5-HT4 receptor with the corresponding synthetic peptide [1] | SMILES | competition with the homologue peptide for binding the anti-peptide antibodies [2]
1 | specifically inhibited | NCCc1c[nH]c2ccc(O)cc12 [5-HT, serotonin] | –
2 | – | CC[N+](CC)(CC)CCOc1cccc(OCC[N+](CC)(CC)CC)c1OCC[N+](CC)(CC)CC [gallamine] | able to compete with the homologue peptide and hinder the recognition between the homologue peptide and the anti-peptide in liquid phase
